Test results reported in patent publication US20180148418A1, “AMIDO-SUBSTITUTED CYCLOHEXANE DERIVATIVES” (Bayer Pharma Aktiengesellschaft, priority 2015, published 2018).

target: T1, TNKS1 (Homo sapiens, UniProt O95271); test: TNKS1 Assay B (auto-parsylation, [3H]-NAD+ SPA); format: biochemical; settings: 6 nM TNKS1, auto-parsylation, over night at room temperature
T1 construct: purchased BPS Bioscience, San Diego, USA 80579 (TNKS1 Histone Ribosylation Assay Kit)
T1 sequence (O95271 1-1327): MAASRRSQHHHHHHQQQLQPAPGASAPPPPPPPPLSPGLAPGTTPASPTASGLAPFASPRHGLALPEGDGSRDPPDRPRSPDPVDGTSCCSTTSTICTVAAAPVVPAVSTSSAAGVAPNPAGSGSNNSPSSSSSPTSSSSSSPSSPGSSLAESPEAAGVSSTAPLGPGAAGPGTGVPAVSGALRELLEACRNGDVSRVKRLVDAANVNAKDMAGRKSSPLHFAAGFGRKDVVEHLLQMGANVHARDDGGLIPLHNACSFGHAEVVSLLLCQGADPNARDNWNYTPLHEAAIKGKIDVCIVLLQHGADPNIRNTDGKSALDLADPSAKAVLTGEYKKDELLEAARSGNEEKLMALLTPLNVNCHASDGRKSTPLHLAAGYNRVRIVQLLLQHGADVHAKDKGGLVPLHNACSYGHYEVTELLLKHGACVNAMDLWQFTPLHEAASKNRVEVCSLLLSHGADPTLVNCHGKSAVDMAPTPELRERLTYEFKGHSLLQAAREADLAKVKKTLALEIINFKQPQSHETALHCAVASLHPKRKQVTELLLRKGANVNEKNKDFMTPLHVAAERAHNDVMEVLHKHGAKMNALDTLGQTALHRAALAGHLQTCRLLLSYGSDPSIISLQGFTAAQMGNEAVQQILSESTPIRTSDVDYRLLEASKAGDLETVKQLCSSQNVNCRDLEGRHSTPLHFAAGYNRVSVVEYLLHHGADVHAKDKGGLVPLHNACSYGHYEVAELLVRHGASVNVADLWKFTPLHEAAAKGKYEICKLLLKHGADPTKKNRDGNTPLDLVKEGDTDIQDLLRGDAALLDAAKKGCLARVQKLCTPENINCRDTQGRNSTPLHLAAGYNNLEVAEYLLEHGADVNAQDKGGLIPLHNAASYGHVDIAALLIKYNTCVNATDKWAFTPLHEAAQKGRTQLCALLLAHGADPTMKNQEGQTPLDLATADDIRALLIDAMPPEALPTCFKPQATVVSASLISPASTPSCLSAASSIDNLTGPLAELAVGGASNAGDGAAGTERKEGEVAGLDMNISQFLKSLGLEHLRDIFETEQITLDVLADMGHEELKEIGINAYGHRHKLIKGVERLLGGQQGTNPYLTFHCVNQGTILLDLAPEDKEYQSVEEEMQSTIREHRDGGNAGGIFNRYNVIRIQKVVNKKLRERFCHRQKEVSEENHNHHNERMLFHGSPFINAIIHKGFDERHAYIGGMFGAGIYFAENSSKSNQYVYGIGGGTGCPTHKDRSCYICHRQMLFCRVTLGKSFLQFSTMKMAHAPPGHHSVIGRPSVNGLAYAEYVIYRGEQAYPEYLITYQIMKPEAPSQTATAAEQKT

Row | IC50 [nM] | Structure (SMILES)
1 | 400 | O=C(NC12CCC(C(=O)Nc3ccc(F)cc3Cl)(CC1)CC2)c1cnc2cccnn12 [Example 121, N-{4-[(2-chloro-4-fluorophenyl)carbamoyl]bicyclo[2.2.2]oct-1-yl}imidazo[1,2-b]pyridazine-3-carboxamide]
2 | 4.1 | O=C(NCCN1CCCCC1)c1nc[nH]c1C(=O)N[C@H]1CC[C@@]2(CCN(c3ccc(F)cc3Cl)C2=O)CC1 [Example 161, N^5-[(trans)-2-(2-chloro-4-fluorophenyl)-1-oxo-2-azaspiro[4.5]dec-8-yl]-N^4-[2-(piperidin-1-yl)ethyl]-1H-imidazole-4,5-dicarboxamide]
3 | 150 | O=C(NCC1CCCO1)c1nc[nH]c1C(=O)N[C@H]1CC[C@H](C(=O)Nc2cc(C(F)(F)F)ccc2Cl)CC1 (stereo partly drawn) [Example 146, N^5-(trans-4-{[2-chloro-5-(trifluoromethyl)phenyl]carbamoyl}cyclohexyl)-N^4-(tetrahydrofuran-2-ylmethyl)-1H-imidazole-4,5-dicarboxamide]
4 | 390 | CN(c1ccccc1)C(=O)[C@H]1CC[C@H](NC(=O)c2cnn3cccnc23)CC1 [Example 156, N-{trans-4-[methyl(phenyl)carbamoyl]cyclohexyl}pyrazolo[1,5-a]pyrimidine-3-carboxamide]
5 | 52 | O=C(N[C@H]1CC[C@H](C(=O)Nc2ccc(F)cc2Cl)CC1)c1cnn2ccc(N3CCCC3)nc12 [Example 108]
6 | 120 | Cc1cc(C)n2ncc(C(=O)NC34CCC(C(=O)Nc5ccc(F)cc5Cl)(CC3)CC4)c2n1 [Example 125, N-{4-[(2-chloro-4-fluorophenyl)carbamoyl]bicyclo[2.2.2]oct-1-yl}-5,7-dimethylpyrazolo[1,5-a]pyrimidine-3-carboxamide]
7 | 34 | O=C(N[C@H]1CC[C@H](C(=O)Nc2cc(F)c(F)cc2Cl)CC1)c1cnn2cccnc12 [Example 130, N-{trans-4-[(2-chloro-4,5-difluorophenyl)carbamoyl]cyclohexyl}pyrazolo[1,5-a]pyrimidine-3-carboxamide]
8 | 160 | CNC(=O)c1[nH]cnc1C(=O)NC12CCC(C(=O)Nc3ccc(F)cc3Cl)(CC1)CC2 [Example 115, N^4-{4-[(2-chloro-4-fluorophenyl)carbamoyl]bicyclo[2.2.2]oct-1-yl}-N^5-methyl-1H-imidazole-4,5-dicarboxamide]
9 | 64 | O=C(N[C@H]1CC[C@H](C(=O)Nc2cc(F)c(F)cc2Cl)CC1)c1cnc2cccnn12 [Example 132, N-{trans-4-[(2-chloro-4,5-difluorophenyl)carbamoyl]cyclohexyl}imidazo[1,2-b]pyridazine-3-carboxamide]
10 | 790 | O=C(NCCC1CC1)c1nc[nH]c1C(=O)N[C@H]1CC[C@H](C(=O)Nc2cc(N3CCOCC3)ccc2Cl)CC1 [Example 93, N^5-(trans-4-{[2-chloro-5-(morpholin-4-yl)phenyl]carbamoyl}cyclohexyl)-N^4-(2-cyclopropylethyl)-1H-imidazole-4,5-dicarboxamide]
11 | 45 | O=C(NCC1CCCO1)c1nc[nH]c1C(=O)N[C@H]1CC[C@H](C(=O)Nc2cc(F)ccc2Cl)CC1 (stereo partly drawn) [Example 129, N^5-{trans-4-[(2-chloro-5-fluorophenyl)carbamoyl]cyclohexyl}-N^4-(tetrahydrofuran-2-ylmethyl)-1H-imidazole-4,5-dicarboxamide]
12 | 230 | O=C(NC12CCC(C(=O)Nc3cnccc3Cl)(CC1)CC2)c1cnc2cccnn12 [Example 124, N-{4-[(4-chloropyridin-3-yl)carbamoyl]bicyclo[2.2.2]oct-1-yl}imidazo[1,2-b]pyridazine-3-carboxamide]
13 | 11 | Cc1cc(C)n2ncc(C(=O)N[C@H]3CC[C@@]4(CCN(c5ccc(F)cc5Cl)C4=O)CC3)c2n1 [Example 139, N-[(trans)-2-(2-chloro-4-fluorophenyl)-1-oxo-2-azaspiro[4.5]dec-8-yl]-5,7-dimethylpyrazolo[1,5-a]pyrimidine-3-carboxamide]
14 | 68 | COCC(C)NC(=O)c1nc[nH]c1C(=O)N[C@H]1CC[C@H](C(=O)Nc2cnccc2Cl)CC1 (stereo partly drawn) [Example 99, N^5-{trans-4-[(4-chloropyridin-3-yl)carbamoyl]cyclohexyl}-N^4-(1-methoxypropan-2-yl)-1H-imidazole-4,5-dicarboxamide]
15 | 4100 | CNC(=O)c1nc[nH]c1C(=O)N[C@H]1CC[C@H](C(=O)Nc2ccc(F)cc2)CC1 [Example 8, N^5-{trans-4-[(4-fluorophenyl)carbamoyl]cyclohexyl}-N^4-methyl-1H-imidazole-4,5-dicarboxamide]
16 | 860 | CC(O)CNc1ccc2ncc(C(=O)N[C@H]3CC[C@H](C(=O)Nc4ccc(F)cc4Cl)CC3)n2n1 (stereo partly drawn) [Example 114, N-{trans-4-[(2-chloro-4-fluorophenyl)carbamoyl]cyclohexyl}-6-[(2-hydroxypropyl)amino]imidazo[1,2-b]pyridazine-3-carboxamide]
17 | 560 | O=C(NC12CCC(C(=O)Nc3c(F)cc(F)cc3Cl)(CC1)CC2)c1cnn2cccnc12 [Example 119, N-{4-[(2-chloro-4,6-difluorophenyl)carbamoyl]bicyclo[2.2.2]oct-1-yl}pyrazolo[1,5-a]pyrimidine-3-carboxamide]
18 | 85 | CNC(=O)c1nc[nH]c1C(=O)N[C@H]1CC[C@H](C(=O)Nc2ccc(C)cc2Cl)CC1 [Example 9, N^5-{trans-4-[(2-chloro-4-methylphenyl)carbamoyl]cyclohexyl}-N^4-methyl-1H-imidazole-4,5-dicarboxamide]
19 | 8 | CC1CCN(CCNC(=O)c2nc[nH]c2C(=O)N[C@H]2CC[C@@]3(CCN(c4ccc(F)cc4Cl)C3=O)CC2)CC1 [Example 160, N^5-[(trans)-2-(2-chloro-4-fluorophenyl)-1-oxo-2-azaspiro[4.5]dec-8-yl]-N^4-[2-(4-methylpiperidin-1-yl)ethyl]-1H-imidazole-4,5-dicarboxamide]

Row | Structure (SMILES) | IC50 [nM]
20 | Cc1c(C(C)N(C)C)cnc2c(C(=O)N[C@H]3CC[C@H](C(=O)Nc4ccc(F)cc4Cl)CC3)cnn12 (single isomer, unassigned) [Example 56, N-{trans-4-[(2-chloro-4-fluorophenyl)carbamoyl]cyclohexyl}-6-[1-(dimethylamino)ethyl]-7-methylpyrazolo[1,5-a]pyrimidine-3-carboxamide] | 840
